In the assay the target is T1, Enoyl-[acyl-carrier-protein] reductase [NADH] (Mycobacterium tuberculosis (strain ATCC 25618 / H37Rv), UniProt P9WGR1).
T1 sequence (P9WGR1 whole entry): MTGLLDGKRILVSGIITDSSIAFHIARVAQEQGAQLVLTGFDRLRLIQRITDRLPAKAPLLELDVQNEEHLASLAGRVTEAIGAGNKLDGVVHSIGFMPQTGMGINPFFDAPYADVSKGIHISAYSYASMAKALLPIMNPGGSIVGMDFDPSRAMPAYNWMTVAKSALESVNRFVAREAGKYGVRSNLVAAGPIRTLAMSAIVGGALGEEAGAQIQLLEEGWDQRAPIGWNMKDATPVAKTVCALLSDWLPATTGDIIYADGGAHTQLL
As to the kind of experiment: Inhibition of Mycobacterium tuberculosis InhA.

These results are taken from BindingDB's records for doi:10.1016/j.ejmech.2018.01.047 (Cnrs, 2018).

In general, IC50 refers to the concentration that gives 50% inhibition. A higher IC50 goes with weaker potency in that assay. For the compound `CCCCCCc1ccc(Oc2ccccc2Cl)c(O)c1` [PT91], the half-maximal inhibitory concentration (IC50) was 0.049 µM.
`CCCCCCc1ccc(Oc2ccccc2C#N)c(O)c1` [PT119] gave a half-maximal inhibitory concentration (IC50) of 0.236 µM.
